Assay in all cases: inhibition of tumour cell growth, NCI panel, 48 h
The subject of experiment [1] is MDA-N.
For experiment [2], the system named is SNB-75.
Experiment [3] deals with K562.
The test system of experiment [4] is A498.
The test system of experiment [5] is MDA-MB-231.
The test system of experiment [6] is NCI-H226.
Experiment [7] deals with HCT-15.
Experiment [8] concerns SW-620.
The subject of experiment [9] is UACC-62.
In experiment [10] the test system is Malme-3M.
The test system of experiment [11] is ACHN.
The test system of experiment [12] is RPMI-8226.
In experiment [13] the test system is SNB-19.
Experiment [14] concerns SK-OV-3.
For experiment [15], the system named is BT-549.
In experiment [16] the test system is A549.
For experiment [17], the system named is NCI-H522.
Experiment [18] relates to LOX IMVI.
The test system of experiment [19] is IGROV-1.

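Tested at 5 concentrations; 48 h exposure; 96-well plates; endpoints linearly interpolated, else capped at highest concentration. Abbreviation: GI50, concentration required for 50% inhibition of growth.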 Calls of active or inactive are those of the source. Rule as the data show it: active = GI50 up to about 1.1 µM and inactive = higher.

As to `Cc1cccc(N/C(Sc2ccccc2)=C(/C(Cl)=C(Cl)Cl)[N+](=O)[O-])c1`, the GI50 in experiment [1] was 19.4 µM (inactive); in experiment [2], 26.1 µM (inactive); in experiment [3], 20.3 µM (inactive); in experiment [4] it was 16.8 µM (inactive); in [5] it was 20.4 µM (inactive); in [6] it was 16.6 µM (inactive). Further, the GI50 in [7] was 15.3 µM; in experiment [8] it was 17.4 µM (inactive); in experiment [9] it was 20.3 µM (inactive); in experiment [10] it was 16.5 µM (inactive); in experiment [11], 26.4 µM (inactive); in experiment [12] it was 30.4 µM (inactive). For the same compound, the GI50 was 28.7 µM (inactive) in [13], 20.5 µM (inactive) in experiment [14], 20.4 µM (inactive) in [15] and 20 µM (inactive) in [16].
For the compound `CN(C)c1ccc2c3c(c(=O)oc2c1)CCC3`, the GI50 in experiment [17] is 26.7 µM (inactive); in experiment [1] it was 97.9 µM (inactive); in experiment [18], 40.6 µM (inactive); in [3], 69.3 µM (inactive); in [4], 29.4 µM (inactive); in experiment [5], 28.7 µM (inactive). Further, the GI50 is 85.5 µM (inactive) in experiment [6]; 50.7 µM in experiment [7]; > 100 µM (inactive) in [8]; 29.4 µM (inactive) in experiment [9]; 58.5 µM (inactive) in experiment [11]; 37.6 µM (inactive) in [12]. The GI50 is > 100 µM (inactive) in experiment [13], 84.1 µM (inactive) in experiment [19], > 100 µM (inactive) in experiment [15] and 51.3 µM (inactive) in experiment [16].
Turning to `CC1(C)OC[C@@H](O)[C@H](Br)CO1`, the GI50 in experiment [1] was > 100 µM (inactive); in [2], > 100 µM (inactive); in experiment [18], > 100 µM (inactive); in experiment [3] it was 79.8 µM (inactive); in experiment [4], > 100 µM (inactive); in [5], > 100 µM (inactive). For the same compound, the GI50 in experiment [6] was > 100 µM (inactive); in experiment [7], greater than 100 µM; in [8], > 100 µM (inactive); in experiment [9], > 100 µM (inactive); in experiment [10], > 100 µM (inactive); in experiment [11], > 100 µM (inactive). In addition, the GI50 is 67.3 µM (inactive) in experiment [12], > 100 µM (inactive) in experiment [13], > 100 µM (inactive) in experiment [14] and > 100 µM (inactive) in [15].
For `O=C1NC(=O)/C(=C/c2ccc(S(=O)(=O)N/N=C\C(O)C(O)C(O)C(O)CO)cc2)N1` (stereo not given), the GI50 in experiment [1], in experiment [2], in experiment [18], in experiment [3], in experiment [4] and in experiment [5] was > 100 µM (inactive) throughout. Also, the GI50 in [6] is > 100 µM (inactive); in experiment [7], greater than 100 µM; in experiment [8] it was > 100 µM (inactive); in experiment [9], > 100 µM (inactive); in [10], > 100 µM (inactive); in experiment [11], > 100 µM (inactive). The GI50 in [12], in experiment [13], in experiment [14], in experiment [19], in [15] and in experiment [16] was > 100 µM (inactive) each time.
As for `COc1ccccc1-c1nc(O)c2ccccc2n1`, the GI50 in experiment [1] is > 100 µM (inactive); in [2], > 100 µM (inactive); in [4], > 100 µM (inactive); in experiment [5], > 100 µM (inactive); in experiment [6] it was 68.1 µM (inactive); in [7], greater than 100 µM. Also, the GI50 in experiment [8], in experiment [9], in experiment [10], in experiment [11], in experiment [12] and in [13] was > 100 µM (inactive) in each case. Further, the GI50 in experiment [14], in [19], in [15] and in experiment [16] was > 100 µM (inactive) throughout.
Regarding `CO/C=C(/C(=O)OC)c1ccccc1[C@@H]1CC1c1cccc(F)c1` (stereo not given in full), the GI50 in experiment [17] is 14.2 µM (inactive); in [1] it was 22.1 µM (inactive); in experiment [3], 44.2 µM (inactive); in [4], 25.6 µM (inactive); in [5] it was 29.9 µM (inactive); in experiment [6], 25.6 µM (inactive). Moreover, the GI50 in experiment [7] is 23.4 µM; in [9], 18.2 µM (inactive); in [10], 16 µM (inactive); in [11], 23.2 µM (inactive); in [12], 19.5 µM (inactive); in [13] it was 53.3 µM (inactive). Further, the GI50 was 25.5 µM (inactive) in experiment [14], 18.2 µM (inactive) in experiment [19], 25.4 µM (inactive) in experiment [15] and 20.6 µM (inactive) in experiment [16].
As for `Cc1ccc2c(=O)c(C(=O)Nn3c(C)csc3=S)c[nH]c2n1`, the GI50 in experiment [17], in [1], in experiment [18], in experiment [3], in experiment [4] and in [5] was > 100 µM (inactive) throughout. The GI50 in experiment [6] is 83 µM (inactive); in [7], greater than 100 µM; in [8] it was > 100 µM (inactive); in experiment [9], > 100 µM (inactive); in experiment [10], > 100 µM (inactive); in experiment [11] it was > 100 µM (inactive). Moreover, the GI50 in [12], in experiment [13], in [19], in experiment [15] and in [16] was > 100 µM (inactive) throughout.
Regarding `N#CC(O)CCOCc1ccccc1` (stereo not given), the GI50 is 20.5 µM (inactive) in experiment [17]; 86.7 µM (inactive) in experiment [1]; 46.9 µM (inactive) in experiment [18]; 80.7 µM (inactive) in experiment [3]; > 100 µM (inactive) in experiment [4]; > 100 µM (inactive) in experiment [5]. The GI50 in experiment [6] was > 100 µM (inactive); in [7], 52.4 µM; in [8], 45.4 µM (inactive); in experiment [9], > 100 µM (inactive); in experiment [10], > 10 µM (inactive); in experiment [11], 39.4 µM (inactive). The GI50 in experiment [12] is 41.7 µM (inactive); in experiment [13] it was > 100 µM (inactive); in experiment [14], > 100 µM (inactive); in experiment [19], > 100 µM (inactive); in experiment [15], > 100 µM (inactive); in experiment [16], > 100 µM (inactive).
As to `COC(=O)[C@@]1(Cc2ccc(OC(C)=O)cc2)Cc2cc3ccccc3n2N1`, the GI50 is 24 µM (inactive) in experiment [17]; 26.5 µM (inactive) in experiment [1]; 38.6 µM (inactive) in [18]; 23.1 µM (inactive) in experiment [4]; 29.2 µM (inactive) in experiment [5]; 63.4 µM (inactive) in experiment [6]. The GI50 in experiment [7] is 53.5 µM; in experiment [8], 29.2 µM (inactive); in experiment [9] it was 57.4 µM (inactive); in experiment [10] it was 47.5 µM (inactive); in [11], 58.1 µM (inactive); in experiment [12] it was 26.6 µM (inactive). The GI50 in experiment [13] was 93.8 µM (inactive); in experiment [14] it was > 100 µM (inactive); in experiment [19], 55.8 µM (inactive); in experiment [15], 28.2 µM (inactive); in experiment [16], 47.2 µM (inactive).

(Values after ChEMBL document CHEMBL1201862, “PubChem BioAssay data set” (2004).)
